Experimental findings from ChEMBL document CHEMBL1131542, “A potent dipeptide inhibitor of dipeptidyl peptidase IV” (Bioorg Med Chem Lett, 1998) are described below.

For assay [1], the target named is T1, Dipeptidyl peptidase 4 (Homo sapiens, UniProt P27487). The assay can be described thus: Percent inhibition of Dipeptidyl peptidase IV (DPP IV) at a concentration of 10 uM.
Assay [2] addresses T1, Dipeptidyl peptidase 4. Briefly: Percent inhibition against Dipeptidyl peptidase IV (DPP IV) at a concentration of 1 uM.

One may read the inhibition as the percentage by which the read-out fell short of the control.

SMILES strings stand for the structures. Square brackets hold non-standard residues; d marks the D form. Peptide text beside a SMILES is read from it. Tic = O=C(O)[C@@H]1Cc2ccccc2CN1

T1 sequence (P27487 whole entry, looked up): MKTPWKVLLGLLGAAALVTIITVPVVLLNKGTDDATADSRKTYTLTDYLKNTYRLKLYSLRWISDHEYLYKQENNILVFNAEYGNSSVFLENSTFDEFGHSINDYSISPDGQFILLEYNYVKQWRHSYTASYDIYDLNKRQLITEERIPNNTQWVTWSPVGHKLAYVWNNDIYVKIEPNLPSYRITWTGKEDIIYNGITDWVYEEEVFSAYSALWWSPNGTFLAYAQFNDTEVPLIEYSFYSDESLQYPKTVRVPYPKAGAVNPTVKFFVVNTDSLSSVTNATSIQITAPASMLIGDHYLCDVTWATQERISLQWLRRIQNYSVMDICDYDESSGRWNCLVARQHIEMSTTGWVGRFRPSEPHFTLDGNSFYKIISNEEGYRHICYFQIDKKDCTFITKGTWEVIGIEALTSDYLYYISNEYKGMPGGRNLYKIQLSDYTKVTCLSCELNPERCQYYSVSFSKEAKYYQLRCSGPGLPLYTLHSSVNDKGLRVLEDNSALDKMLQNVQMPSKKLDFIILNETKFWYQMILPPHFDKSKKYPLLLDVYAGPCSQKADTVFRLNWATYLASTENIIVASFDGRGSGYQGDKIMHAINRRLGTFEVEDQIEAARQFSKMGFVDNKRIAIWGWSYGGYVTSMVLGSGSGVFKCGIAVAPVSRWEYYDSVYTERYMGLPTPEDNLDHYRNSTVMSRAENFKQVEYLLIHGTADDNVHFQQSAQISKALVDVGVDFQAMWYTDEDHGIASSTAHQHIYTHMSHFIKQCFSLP

`CC[C@@H](C)[C@H](NC(=O)[C@@H]1Cc2ccccc2CN1C(=O)[C@@H](N)Cc1c[nH]c2ccccc12)C(=O)O` had an inhibition in assay [1] of 32%.

Compound `CC[C@H](C)[C@H](NC(=O)[C@H](Cc1c[nH]cn1)NC(=O)CNC(=O)[C@H](CCC(=O)O)NC(=O)[C@H](CCC(N)=O)NC(=O)[C@H](CC(=O)O)NC(=O)[C@H](CC(N)=O)NC(=O)[C@H](CCCN=C(N)N)NC(=O)[C@H](C)NC(=O)[C@@H]1Cc2ccccc2CN1C(=O)[C@H]1CCCN1)C(=O)N[C@@H](CC(C)C)C(=O)N[C@@H](CCCCN)C(=O)N[C@@H](CCSC)C(=O)N[C@@H](Cc1ccccc1)C(=O)N1CCC[C@H]1C(=O)N[C@@H](CO)C(=O)N[C@H](C(=O)N[C@@H](Cc1c[nH]c2ccccc12)C(=O)N[C@@H](Cc1ccc(O)cc1)C(=O)N[C@H](C(=O)O)C(C)C)[C@@H](C)O` registered an inhibition in assay [2] of 2%.

As to `C[C@H](O)[C@H](NC(=O)[C@@H]1Cc2ccccc2CN1C(=O)[C@@H](N)Cc1c[nH]c2ccccc12)C(=O)O`, the inhibition in assay [1] came to 37%.

`CC[C@H](C)[C@H](NC(=O)[C@H](Cc1c[nH]cn1)NC(=O)CNC(=O)[C@H](CCC(=O)O)NC(=O)[C@H](CCC(N)=O)NC(=O)[C@H](CC(=O)O)NC(=O)[C@H](CC(N)=O)NC(=O)[C@H](CCCN=C(N)N)NC(=O)[C@H](C)NC(=O)[C@@H]1Cc2ccccc2CN1C(=O)[C@H](C)N)C(=O)N[C@@H](CC(C)C)C(=O)N[C@@H](CCCCN)C(=O)N[C@@H](CCSC)C(=O)N[C@@H](Cc1ccccc1)C(=O)N1CCC[C@H]1C(=O)N[C@@H](CO)C(=O)N[C@H](C(=O)N[C@@H](Cc1c[nH]c2ccccc12)C(=O)N[C@@H](Cc1ccc(O)cc1)C(=O)N[C@H](C(=O)O)C(C)C)[C@@H](C)O` (H-A[Tic]ARNDQEGHILKMFPSTWYV-OH) had an inhibition in assay [2] of 1%.

`CC[C@H](C)[C@H](NC(=O)[C@H](Cc1c[nH]cn1)NC(=O)CNC(=O)[C@H](CCC(=O)O)NC(=O)[C@H](CCC(N)=O)NC(=O)[C@H](CC(=O)O)NC(=O)[C@H](CC(N)=O)NC(=O)[C@H](CCCN=C(N)N)NC(=O)[C@H](C)NC(=O)[C@@H]1Cc2ccccc2CN1C(=O)[C@@H](N)CS)C(=O)N[C@@H](CC(C)C)C(=O)N[C@@H](CCCCN)C(=O)N[C@@H](CCSC)C(=O)N[C@@H](Cc1ccccc1)C(=O)N1CCC[C@H]1C(=O)N[C@@H](CO)C(=O)N[C@H](C(=O)N[C@@H](Cc1c[nH]c2ccccc12)C(=O)N[C@@H](Cc1ccc(O)cc1)C(=O)N[C@H](C(=O)O)C(C)C)[C@@H](C)O` (H-C[Tic]ARNDQEGHILKMFPSTWYV-OH): in assay [2], the inhibition turned out to be 9%.

Turning to `CC[C@H](C)[C@H](NC(=O)[C@H](Cc1c[nH]cn1)NC(=O)CNC(=O)[C@H](CCC(=O)O)NC(=O)[C@H](CCC(N)=O)NC(=O)[C@H](CC(=O)O)NC(=O)[C@H](CC(N)=O)NC(=O)[C@H](CCCN=C(N)N)NC(=O)[C@H](C)NC(=O)[C@@H]1Cc2ccccc2CN1C(=O)[C@@H](N)CC(=O)O)C(=O)N[C@@H](CC(C)C)C(=O)N[C@@H](CCCCN)C(=O)N[C@@H](CCSC)C(=O)N[C@@H](Cc1ccccc1)C(=O)N1CCC[C@H]1C(=O)N[C@@H](CO)C(=O)N[C@H](C(=O)N[C@@H](Cc1c[nH]c2ccccc12)C(=O)N[C@@H](Cc1ccc(O)cc1)C(=O)N[C@H](C(=O)O)C(C)C)[C@@H](C)O` (H-D[Tic]ARNDQEGHILKMFPSTWYV-OH), in assay [2], the inhibition worked out at 8%.

With `CC[C@H](C)[C@H](NC(=O)[C@H](Cc1c[nH]cn1)NC(=O)CNC(=O)[C@H](CCC(=O)O)NC(=O)[C@H](CCC(N)=O)NC(=O)[C@H](CC(=O)O)NC(=O)[C@H](CC(N)=O)NC(=O)[C@H](CCCN=C(N)N)NC(=O)[C@H](C)NC(=O)[C@@H]1Cc2ccccc2CN1C(=O)[C@@H](N)CCC(=O)O)C(=O)N[C@@H](CC(C)C)C(=O)N[C@@H](CCCCN)C(=O)N[C@@H](CCSC)C(=O)N[C@@H](Cc1ccccc1)C(=O)N1CCC[C@H]1C(=O)N[C@@H](CO)C(=O)N[C@H](C(=O)N[C@@H](Cc1c[nH]c2ccccc12)C(=O)N[C@@H](Cc1ccc(O)cc1)C(=O)N[C@H](C(=O)O)C(C)C)[C@@H](C)O` (H-E[Tic]ARNDQEGHILKMFPSTWYV-OH), the inhibition in assay [2] is 4%.

As to `CC[C@H](C)[C@H](NC(=O)[C@H](Cc1c[nH]cn1)NC(=O)CNC(=O)[C@H](CCC(=O)O)NC(=O)[C@H](CCC(N)=O)NC(=O)[C@H](CC(=O)O)NC(=O)[C@H](CC(N)=O)NC(=O)[C@H](CCCN=C(N)N)NC(=O)[C@H](C)NC(=O)[C@@H]1Cc2ccccc2CN1C(=O)[C@@H](N)Cc1ccccc1)C(=O)N[C@@H](CC(C)C)C(=O)N[C@@H](CCCCN)C(=O)N[C@@H](CCSC)C(=O)N[C@@H](Cc1ccccc1)C(=O)N1CCC[C@H]1C(=O)N[C@@H](CO)C(=O)N[C@H](C(=O)N[C@@H](Cc1c[nH]c2ccccc12)C(=O)N[C@@H](Cc1ccc(O)cc1)C(=O)N[C@H](C(=O)O)C(C)C)[C@@H](C)O` (H-F[Tic]ARNDQEGHILKMFPSTWYV-OH), in assay [2], the inhibition was determined as 4%.

Compound `CC[C@H](C)[C@H](NC(=O)[C@H](Cc1c[nH]cn1)NC(=O)CNC(=O)[C@H](CCC(=O)O)NC(=O)[C@H](CCC(N)=O)NC(=O)[C@H](CC(=O)O)NC(=O)[C@H](CC(N)=O)NC(=O)[C@H](CCCN=C(N)N)NC(=O)[C@H](C)NC(=O)[C@@H]1Cc2ccccc2CN1C(=O)CN)C(=O)N[C@@H](CC(C)C)C(=O)N[C@@H](CCCCN)C(=O)N[C@@H](CCSC)C(=O)N[C@@H](Cc1ccccc1)C(=O)N1CCC[C@H]1C(=O)N[C@@H](CO)C(=O)N[C@H](C(=O)N[C@@H](Cc1c[nH]c2ccccc12)C(=O)N[C@@H](Cc1ccc(O)cc1)C(=O)N[C@H](C(=O)O)C(C)C)[C@@H](C)O` (H-G[Tic]ARNDQEGHILKMFPSTWYV-OH) came in with an inhibition in assay [2] of 0%.

In assay [2], `CC[C@H](C)[C@H](NC(=O)[C@H](Cc1c[nH]cn1)NC(=O)CNC(=O)[C@H](CCC(=O)O)NC(=O)[C@H](CCC(N)=O)NC(=O)[C@H](CC(=O)O)NC(=O)[C@H](CC(N)=O)NC(=O)[C@H](CCCN=C(N)N)NC(=O)[C@H](C)NC(=O)[C@@H]1Cc2ccccc2CN1C(=O)[C@@H](N)Cc1c[nH]cn1)C(=O)N[C@@H](CC(C)C)C(=O)N[C@@H](CCCCN)C(=O)N[C@@H](CCSC)C(=O)N[C@@H](Cc1ccccc1)C(=O)N1CCC[C@H]1C(=O)N[C@@H](CO)C(=O)N[C@H](C(=O)N[C@@H](Cc1c[nH]c2ccccc12)C(=O)N[C@@H](Cc1ccc(O)cc1)C(=O)N[C@H](C(=O)O)C(C)C)[C@@H](C)O` (H-H[Tic]ARNDQEGHILKMFPSTWYV-OH) registered an inhibition of 7%.

In turn, `N[C@@H](Cc1c[nH]c2ccccc12)C(=O)N[C@@H](CCC(=O)O)C(=O)O` (H-Trp-Glu-OH) returned an inhibition in assay [1] of 3%.

Consider `N[C@@H](Cc1c[nH]c2ccccc12)C(=O)N[C@@H](Cc1ccccc1)C(=O)O` (H-Trp-Phe-OH), for which the inhibition in assay [1] came out at 0%.

`N[C@@H](Cc1c[nH]c2ccccc12)C(=O)N1CCC[C@H]1C(=O)O` (H-Trp-Pro-OH) gave an inhibition in assay [1] of 15%.

In assay [1], `N[C@@H](Cc1c[nH]c2ccccc12)C(=O)N[C@@H](Cc1c[nH]c2ccccc12)C(=O)O` (H-Trp-Trp-OH) gave an inhibition of 2%.

For `N[C@@H](Cc1c[nH]c2ccccc12)C(=O)N[C@@H](Cc1ccc(O)cc1)C(=O)O` (H-Trp-Tyr-OH), the inhibition in assay [1] turned out to be 10%.

Take `CC(C)[C@H](NC(=O)[C@@H](N)Cc1c[nH]c2ccccc12)C(=O)O` (H-Trp-Val-OH): the inhibition in assay [1] was 4%.

In assay [1], `C[C@H](NC(=O)[C@@H]1Cc2ccccc2CN1C(=O)[C@@H](N)Cc1c[nH]c2ccccc12)C(=O)O` (H-Trp-[Tic]-Ala-OH) had an inhibition of 43%.

In assay [1], `NC(N)=NCCC[C@H](NC(=O)[C@@H]1Cc2ccccc2CN1C(=O)[C@@H](N)Cc1c[nH]c2ccccc12)C(=O)O` (H-Trp-[Tic]-Arg-OH) gave an inhibition of 38%.

For the compound `NC(=O)C[C@H](NC(=O)[C@@H]1Cc2ccccc2CN1C(=O)[C@@H](N)Cc1c[nH]c2ccccc12)C(=O)O` (H-Trp-[Tic]-Asn-OH), the inhibition in assay [1] came out at 46%.

`N[C@@H](Cc1c[nH]c2ccccc12)C(=O)N1Cc2ccccc2C[C@H]1C(=O)N[C@@H](CC(=O)O)C(=O)O` (H-Trp-[Tic]-Asp-OH): the inhibition in assay [1] turned out to be 38%.

For the compound `N[C@@H](Cc1c[nH]c2ccccc12)C(=O)N1Cc2ccccc2C[C@H]1C(=O)N[C@@H](CS)C(=O)O` (H-Trp-[Tic]-Cys-OH), in assay [1], the inhibition was found to be 49%.

In turn, `NC(=O)CC[C@H](NC(=O)[C@@H]1Cc2ccccc2CN1C(=O)[C@@H](N)Cc1c[nH]c2ccccc12)C(=O)O` (H-Trp-[Tic]-Gln-OH) displayed an inhibition in assay [1] of 49%.

The compound `N[C@@H](Cc1c[nH]c2ccccc12)C(=O)N1Cc2ccccc2C[C@H]1C(=O)NCC(=O)O` (H-Trp-[Tic]-Gly-OH) registered an inhibition in assay [1] of 34%.

`N[C@@H](Cc1c[nH]c2ccccc12)C(=O)N1Cc2ccccc2C[C@H]1C(=O)N[C@@H](Cc1c[nH]cn1)C(=O)O` (H-Trp-[Tic]-His-OH) yielded an inhibition in assay [1] of 35%.

In turn, `CC(C)C[C@H](NC(=O)[C@@H]1Cc2ccccc2CN1C(=O)[C@@H](N)Cc1c[nH]c2ccccc12)C(=O)O` (H-Trp-[Tic]-Leu-OH) gave an inhibition in assay [1] of 25%.

`NCCCC[C@H](NC(=O)[C@@H]1Cc2ccccc2CN1C(=O)[C@@H](N)Cc1c[nH]c2ccccc12)C(=O)O` (H-Trp-[Tic]-Lys-OH) gave an inhibition in assay [1] of 27%.

For the compound `CSCC[C@H](NC(=O)[C@@H]1Cc2ccccc2CN1C(=O)[C@@H](N)Cc1c[nH]c2ccccc12)C(=O)O` (H-Trp-[Tic]-Met-OH), in assay [1], the inhibition amounted to 43%.

`N[C@@H](Cc1c[nH]c2ccccc12)C(=O)N1Cc2ccccc2C[C@H]1C(=O)N[C@@H](Cc1ccccc1)C(=O)O` (H-Trp-[Tic]-Phe-OH) displayed an inhibition in assay [1] of 29%.

For `N[C@@H](Cc1c[nH]c2ccccc12)C(=O)N1Cc2ccccc2C[C@H]1C(=O)N1CCC[C@H]1C(=O)O` (H-Trp-[Tic]-Pro-OH), the inhibition in assay [1] amounted to 20%.

On to `N[C@@H](Cc1c[nH]c2ccccc12)C(=O)N1Cc2ccccc2C[C@H]1C(=O)N[C@@H](Cc1c[nH]c2ccccc12)C(=O)O` (H-Trp-[Tic]-Trp-OH), for which the inhibition in assay [1] amounted to 37%.

Consider `N[C@@H](Cc1c[nH]c2ccccc12)C(=O)N1Cc2ccccc2C[C@H]1C(=O)N[C@@H](Cc1ccc(O)cc1)C(=O)O` (H-Trp-[Tic]-Tyr-OH), for which the inhibition in assay [1] came to 36%.

Compound `CC(C)[C@H](NC(=O)[C@@H]1Cc2ccccc2CN1C(=O)[C@@H](N)Cc1c[nH]c2ccccc12)C(=O)O` (H-Trp-[Tic]-Val-OH) came in with an inhibition in assay [1] of 19%.
